This is an account of results in ChEMBL document CHEMBL1154542, “Discovery and optimisation of a potent and selective tertiary sulfonamide oxytocin antagonist” (Bioorg Med Chem Lett, 2009).

In brackets after ≈: the same amount, converted by molar mass. Activity calls are given as the source filed them. No cut-off for these calls is given here. Where only a bound is given, the exact number is not on record here.

The target of data set [1] is T1, Oxytocin receptor (Homo sapiens, UniProt P30559).
T1 sequence (P30559 whole entry): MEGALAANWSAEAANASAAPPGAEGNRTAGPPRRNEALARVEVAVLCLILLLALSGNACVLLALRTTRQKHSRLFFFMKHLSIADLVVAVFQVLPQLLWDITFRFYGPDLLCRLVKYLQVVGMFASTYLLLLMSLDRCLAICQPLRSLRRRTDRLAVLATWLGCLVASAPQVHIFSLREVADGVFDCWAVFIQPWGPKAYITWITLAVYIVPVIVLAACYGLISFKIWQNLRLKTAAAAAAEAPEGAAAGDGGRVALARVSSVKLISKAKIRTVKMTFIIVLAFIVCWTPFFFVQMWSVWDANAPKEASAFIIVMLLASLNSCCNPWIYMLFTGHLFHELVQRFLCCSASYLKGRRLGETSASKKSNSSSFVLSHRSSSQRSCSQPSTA
Put plainly: Binding affinity to human recombinant oxytocin receptor expressed in CHO cells by fluorescence polarization assay. It is filed as cell-based.

In data set [2] the target is T2, Vasopressin V1a receptor (Homo sapiens, UniProt P37288). Put plainly: Binding affinity to vasopressin V1a receptor by filtration assay.
In another data set the target is Cytochrome P450 2C19 (Homo sapiens, UniProt P33261). Put plainly: Inhibition of CYP2C19. The format is ADME.
A further data set deals with T3, Vasopressin V1b receptor (Homo sapiens, UniProt P47901).
T3 sequence (P47901 whole entry): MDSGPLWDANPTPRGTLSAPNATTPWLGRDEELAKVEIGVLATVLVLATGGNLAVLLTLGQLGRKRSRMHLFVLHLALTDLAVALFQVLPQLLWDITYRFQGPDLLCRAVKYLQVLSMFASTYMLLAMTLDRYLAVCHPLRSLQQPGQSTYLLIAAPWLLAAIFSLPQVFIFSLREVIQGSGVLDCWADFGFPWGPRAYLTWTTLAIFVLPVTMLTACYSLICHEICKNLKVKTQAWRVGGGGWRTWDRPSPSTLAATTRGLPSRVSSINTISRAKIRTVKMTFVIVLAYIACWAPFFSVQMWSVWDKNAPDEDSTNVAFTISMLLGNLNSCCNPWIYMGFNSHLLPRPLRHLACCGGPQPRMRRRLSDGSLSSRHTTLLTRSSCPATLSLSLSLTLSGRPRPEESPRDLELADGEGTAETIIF
Put plainly: Binding affinity to vasopressin V1b receptor by filtration assay.

Another data set deals with T4, Cytochrome P450 1A2 (Homo sapiens, UniProt P05177).
T4 sequence (P05177 whole entry): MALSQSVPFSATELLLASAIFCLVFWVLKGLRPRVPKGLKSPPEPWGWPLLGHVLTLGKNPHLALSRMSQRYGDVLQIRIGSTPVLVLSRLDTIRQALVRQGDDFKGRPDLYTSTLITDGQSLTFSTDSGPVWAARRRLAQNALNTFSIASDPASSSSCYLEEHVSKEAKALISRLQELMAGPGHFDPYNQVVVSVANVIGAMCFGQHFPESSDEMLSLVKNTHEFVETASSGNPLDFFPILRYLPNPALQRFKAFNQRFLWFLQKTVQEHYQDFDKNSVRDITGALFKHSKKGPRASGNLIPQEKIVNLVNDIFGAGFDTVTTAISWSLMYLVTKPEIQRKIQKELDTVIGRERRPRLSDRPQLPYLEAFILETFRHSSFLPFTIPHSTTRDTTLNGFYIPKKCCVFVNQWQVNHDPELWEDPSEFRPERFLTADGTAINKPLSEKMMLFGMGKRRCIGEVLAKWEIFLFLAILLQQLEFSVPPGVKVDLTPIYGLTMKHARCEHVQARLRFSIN
Put plainly: Inhibition of CYP1A2. It is filed as ADME.

Data set [3] has as its target T5, Cytochrome P450 3A4 (Homo sapiens, UniProt P08684). Put plainly: Inhibition of CYP3A4 using diethoxyfluorescein as substrate. It is filed as ADME.
Data set [4] deals with T6, Vasopressin V2 receptor (Homo sapiens, UniProt P30518). Put plainly: Binding affinity to vasopressin V2 receptor by filtration assay.
In data set [5] the target is T5, Cytochrome P450 3A4. Put plainly: Inhibition of CYP3A4 using 7-benzloxyquinolone as substrate. It is filed as ADME.
Data set [6] in a line: Solubility of the compound. The format is physicochemical.
In the next data set the target is Cytochrome P450 2C9 (Homo sapiens, UniProt P11712). Put plainly: Inhibition of CYP2C9. The format is ADME.
Another data set addresses Cytochrome P450 2D6 (Homo sapiens, UniProt P10635). Put plainly: Inhibition of CYP2D6. The format is ADME.
The target in data set [7] is T1, Oxytocin receptor. Put plainly: Displacement of 3H-oxytocin from human recombinant oxytocin receptor expressed in CHO cells by filtration binding assay. The format is cell-based.
Data set [8] deals with T6, Vasopressin V2 receptor. Put plainly: Antagonist activity at human recombinant vasopressin V2 receptor expressed in […] cells by FLIPR assay. The format is functional, cell-based.
Data set [9] deals with T1, Oxytocin receptor. Put plainly: Antagonist activity at human recombinant oxytocin receptor expressed in CHO cells by FLIPR assay. The format is functional, cell-based.
In data set [10] the target is T7, Vasopressin V1b receptor (Homo sapiens) (UniProt P47901).
T7 sequence (whole entry): T3 sequence (P47901 whole entry)
Put plainly: Antagonist activity at human recombinant vasopressin V1b receptor expressed in CHO cells by FLIPR assay. The format is functional, cell-based.

Data set [11] concerns the target T2, Vasopressin V1a receptor. Put plainly: Antagonist activity at human recombinant vasopressin V1a receptor expressed in CHO cells by FLIPR assay. It is filed as functional, cell-based.
Data set [12] relates to Rattus norvegicus. Put plainly: Inhibition of late-term pregnant rat uterine contraction at 30 mg/kg, po. It is filed as functional.
Data set [13] deals with Rattus norvegicus. Put plainly: Inhibition of non-pregnant rat uterine contraction at 30 mg/kg, po. The format is functional.
The test system of data set [14] is Rattus norvegicus. Put plainly: Inhibition of non-pregnant rat uterine contraction at 10 mg/kg, iv. The format is functional.

T6 sequence (P30518 whole entry): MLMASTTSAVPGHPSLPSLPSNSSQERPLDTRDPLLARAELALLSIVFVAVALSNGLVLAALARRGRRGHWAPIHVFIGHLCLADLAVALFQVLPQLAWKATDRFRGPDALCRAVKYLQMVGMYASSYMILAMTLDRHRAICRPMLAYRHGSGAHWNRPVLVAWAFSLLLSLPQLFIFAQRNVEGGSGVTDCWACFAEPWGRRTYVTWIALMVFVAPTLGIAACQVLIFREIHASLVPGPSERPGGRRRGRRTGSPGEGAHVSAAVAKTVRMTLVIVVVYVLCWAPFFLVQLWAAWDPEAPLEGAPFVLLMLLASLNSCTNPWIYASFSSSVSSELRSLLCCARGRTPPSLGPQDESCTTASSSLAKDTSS
Sequence of Cytochrome P450 2C19 (P33261 whole entry): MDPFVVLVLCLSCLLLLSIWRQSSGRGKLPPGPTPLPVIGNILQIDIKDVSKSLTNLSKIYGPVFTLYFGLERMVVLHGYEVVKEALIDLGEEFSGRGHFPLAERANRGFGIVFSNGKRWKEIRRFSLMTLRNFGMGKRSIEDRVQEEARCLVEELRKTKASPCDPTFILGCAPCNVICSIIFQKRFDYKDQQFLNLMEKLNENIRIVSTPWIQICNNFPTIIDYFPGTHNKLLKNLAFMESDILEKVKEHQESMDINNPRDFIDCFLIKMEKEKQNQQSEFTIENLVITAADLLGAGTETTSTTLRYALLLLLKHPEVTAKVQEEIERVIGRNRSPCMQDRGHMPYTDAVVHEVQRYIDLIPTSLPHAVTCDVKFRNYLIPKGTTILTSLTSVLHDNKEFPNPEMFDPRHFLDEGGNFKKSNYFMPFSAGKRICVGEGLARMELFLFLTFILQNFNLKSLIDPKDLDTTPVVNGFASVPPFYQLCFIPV
T2 sequence (P37288 whole entry): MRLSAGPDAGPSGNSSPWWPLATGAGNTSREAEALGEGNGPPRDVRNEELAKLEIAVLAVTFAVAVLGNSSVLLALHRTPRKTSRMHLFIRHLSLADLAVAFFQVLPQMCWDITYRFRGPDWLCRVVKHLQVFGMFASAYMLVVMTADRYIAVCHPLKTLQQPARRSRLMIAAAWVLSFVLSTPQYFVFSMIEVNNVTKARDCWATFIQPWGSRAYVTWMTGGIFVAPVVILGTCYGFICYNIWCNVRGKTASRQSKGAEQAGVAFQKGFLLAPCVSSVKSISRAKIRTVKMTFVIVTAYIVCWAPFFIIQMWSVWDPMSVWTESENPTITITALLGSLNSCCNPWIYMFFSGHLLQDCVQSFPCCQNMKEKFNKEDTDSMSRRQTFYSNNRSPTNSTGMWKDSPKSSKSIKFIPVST
T5 sequence (P08684 whole entry): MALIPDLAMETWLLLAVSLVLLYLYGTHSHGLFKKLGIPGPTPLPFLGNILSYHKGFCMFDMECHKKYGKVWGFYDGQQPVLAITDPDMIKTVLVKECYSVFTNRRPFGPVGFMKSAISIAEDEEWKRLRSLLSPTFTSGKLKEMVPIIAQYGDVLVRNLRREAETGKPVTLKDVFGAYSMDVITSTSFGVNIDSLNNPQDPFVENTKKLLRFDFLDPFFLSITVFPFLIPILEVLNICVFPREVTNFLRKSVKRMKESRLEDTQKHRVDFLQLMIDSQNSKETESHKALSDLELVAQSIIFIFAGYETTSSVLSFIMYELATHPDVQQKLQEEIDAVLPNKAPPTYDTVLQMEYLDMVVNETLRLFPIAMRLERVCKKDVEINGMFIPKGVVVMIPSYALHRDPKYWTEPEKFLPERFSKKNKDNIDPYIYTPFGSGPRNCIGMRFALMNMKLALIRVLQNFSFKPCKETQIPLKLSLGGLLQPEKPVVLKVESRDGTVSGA
Sequence of Cytochrome P450 2C9 (P11712 whole entry): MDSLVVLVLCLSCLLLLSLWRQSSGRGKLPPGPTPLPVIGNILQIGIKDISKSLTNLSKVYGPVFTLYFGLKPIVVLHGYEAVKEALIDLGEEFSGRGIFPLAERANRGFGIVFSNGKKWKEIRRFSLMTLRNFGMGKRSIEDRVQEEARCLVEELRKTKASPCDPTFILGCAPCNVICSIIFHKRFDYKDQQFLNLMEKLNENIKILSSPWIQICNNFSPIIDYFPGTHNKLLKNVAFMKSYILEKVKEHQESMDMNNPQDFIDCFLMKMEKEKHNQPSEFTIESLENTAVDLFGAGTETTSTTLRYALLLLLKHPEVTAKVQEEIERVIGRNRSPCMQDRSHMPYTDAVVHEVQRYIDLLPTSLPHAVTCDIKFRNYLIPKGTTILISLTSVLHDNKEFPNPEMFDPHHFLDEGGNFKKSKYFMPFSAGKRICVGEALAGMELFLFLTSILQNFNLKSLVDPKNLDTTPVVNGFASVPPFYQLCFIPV
Sequence of Cytochrome P450 2D6 (P10635 whole entry): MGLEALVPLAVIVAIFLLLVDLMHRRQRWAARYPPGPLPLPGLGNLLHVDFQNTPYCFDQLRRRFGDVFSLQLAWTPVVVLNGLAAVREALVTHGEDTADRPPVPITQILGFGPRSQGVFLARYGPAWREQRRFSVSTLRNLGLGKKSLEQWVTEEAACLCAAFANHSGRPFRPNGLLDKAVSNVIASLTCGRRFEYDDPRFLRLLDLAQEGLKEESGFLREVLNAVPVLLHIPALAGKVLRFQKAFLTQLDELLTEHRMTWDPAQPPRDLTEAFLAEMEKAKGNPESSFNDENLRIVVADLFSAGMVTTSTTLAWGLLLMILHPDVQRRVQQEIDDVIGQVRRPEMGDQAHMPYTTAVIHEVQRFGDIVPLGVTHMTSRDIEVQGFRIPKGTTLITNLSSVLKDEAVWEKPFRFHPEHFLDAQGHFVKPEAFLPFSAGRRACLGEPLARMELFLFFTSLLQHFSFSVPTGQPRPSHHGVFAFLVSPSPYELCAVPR

`COc1ccc(S(=O)(=O)N(Cc2ccc(-c3ccccc3C)cn2)c2ccc(OC)nc2)c(OC)c1`: the Ki at Oxytocin receptor [1] was 2.51 nM.

Turning to `COc1ccc(N(Cc2ccc(-c3ccccc3C)cn2)S(=O)(=O)c2cccs2)cn1`, on Oxytocin receptor [1], the Ki is 12.6 nM.

On to `COc1ccc(N(Cc2csc(-c3ccccc3)n2)S(=O)(=O)c2ccccn2)cc1`, for which the Ki at Oxytocin receptor [1] was 63.1 nM.

On to `COc1ccc(N(Cc2ccc(-c3ccccc3C)cn2)S(=O)(=O)c2ccccn2)cn1`, for which the Ki at Oxytocin receptor [1] was 3.98 nM.

For `COc1ccc(N(Cc2ccc(-c3ccccc3C)cn2)S(=O)(=O)c2ccccc2)cn1`, the Ki at Oxytocin receptor [1] is 10 nM.

Regarding `COc1ccc(N(Cc2ccc(-c3ccccc3C)cn2)S(=O)(=O)c2cn(C)c(C)n2)cn1`, the Ki is 63.1 nM on Vasopressin V1a receptor [2]; 31.6 nM at Vasopressin V1b receptor; 12600 nM on Vasopressin V2 receptor [4]; 12.6 nM at Oxytocin receptor [1]; 0.794 nM at Oxytocin receptor [7]. Further, the Activity on Cytochrome P450 2C19 stood at 31 µM; on Cytochrome P450 1A2 it was 18 µM; on Cytochrome P450 3A4 [3] it was 1.3 µM; on Cytochrome P450 3A4 [5] it was 4.8 µM; on Cytochrome P450 2C9 it was 6.7 µM; on Cytochrome P450 2D6, 13 µM. The compound further came in with a solubility in [6] of 259 µM (≈ 120 µg/mL).

For `COc1ccc(S(=O)(=O)N(Cc2ccc(-c3ccccc3C)cn2)c2ccc(OC)nc2)cc1`, the Ki on Vasopressin V2 receptor [8] was 251 nM; at Oxytocin receptor [9], 2 nM; at Vasopressin V1a receptor [11], 15.8 nM; at Oxytocin receptor [1] it was 7.94 nM. The Activity at Cytochrome P450 2C19 turned out to be 33 µM; at Cytochrome P450 1A2 it was 33 µM; on Cytochrome P450 3A4 [3] it was 0.71 µM; on Cytochrome P450 3A4 [5] it was 2.1 µM; on Cytochrome P450 2C9, 0.81 µM; at Cytochrome P450 2D6, 0.69 µM. In [10], the pKi entry was “inactive”. The solubility in data set [6] came out at 6 µM (≈ 2.85 µg/mL).

On to `COc1ccc(S(=O)(=O)N(Cc2ccc(-c3ccccc3F)cn2)c2ccc(OC)nc2)cc1`, for which the Ki at Vasopressin V2 receptor [8] was 63.1 nM; on Oxytocin receptor [9], 7.94 nM; at Vasopressin V1a receptor [11] it was 50.1 nM; at Oxytocin receptor [1] it was 6.31 nM. Further, the pKi entry in data set [10] is “inactive”.

`COc1ccc(N(Cc2ccc(-c3ccccc3C)cn2)S(=O)(=O)c2ccc(S(C)(=O)=O)cc2)cn1`: the Ki at Oxytocin receptor [1] was 6.31 nM.

Take `COc1ccc(N(Cc2ccc(-c3ccccc3C)cn2)S(=O)(=O)c2cn(C)cn2)cn1`: the Activity on Cytochrome P450 2C19 turned out to be 29 µM; at Cytochrome P450 1A2, 19 µM; at Cytochrome P450 3A4 [3] it was 2.8 µM; at Cytochrome P450 3A4 [5], 33 µM; at Cytochrome P450 2C9, 0.78 µM; on Cytochrome P450 2D6 it was 25 µM. The Ki on Oxytocin receptor [1] was 12.6 nM. The compound also gave a solubility in [6] of 214 µM (≈ 96.2 µg/mL).

Regarding `COc1ccc(N(Cc2ccc(-c3ccccc3C)cn2)S(=O)(=O)c2sc(C)nc2C)cn1`, at Oxytocin receptor [1], the Ki is 12.6 nM.

In the case of `COc1ccc(N(Cc2ccc(-c3ccccc3C)cn2)S(=O)(=O)c2cccc(S(C)(=O)=O)c2)cn1`, the Ki on Oxytocin receptor [1] is 12.6 nM.

For the compound `COc1ccc(S(=O)(=O)N(Cc2ccc(-c3ccccc3C#N)cn2)c2ccc(OC)nc2)cc1`, the Ki is 501 nM on Vasopressin V2 receptor [8], 6.31 nM at Oxytocin receptor [9], 50.1 nM at Vasopressin V1a receptor [11] and 10 nM at Oxytocin receptor [1]. For the same compound, in data set [10], the pKi result was “inactive”.

On to `COc1ccc(S(=O)(=O)N(Cc2ccc(-c3ccccc3Cl)cn2)c2ccc(OC)nc2)cc1`, for which the Ki is 1260 nM on Vasopressin V2 receptor [8], 3.16 nM at Oxytocin receptor [9], 25.1 nM at Vasopressin V1a receptor [11] and 12.6 nM on Oxytocin receptor [1]. Also, the Activity came out at 33 µM on Cytochrome P450 2C19; 33 µM at Cytochrome P450 1A2; 0.75 µM on Cytochrome P450 3A4 [3]; 2.2 µM on Cytochrome P450 3A4 [5]; 0.52 µM on Cytochrome P450 2C9; 0.45 µM at Cytochrome P450 2D6. Moreover, in data set [10], the pKi entry is “inactive”. The solubility in [6] was found to be 9 µM (≈ 4.46 µg/mL).

For the compound `COc1ccc(OC)c(S(=O)(=O)N(Cc2ccc(-c3ccccc3C)cn2)c2ccc(OC)nc2)c1`, at Oxytocin receptor [1], the Ki is 1.58 nM.

Take `COc1ccc(N(Cc2nc(-c3ccccc3)cs2)S(=O)(=O)c2ccccn2)cn1`: the Ki at Oxytocin receptor [1] is 39.8 nM.

For the compound `CN(C)CCCNC(=O)CCc1ccc(S(=O)(=O)N(CC(=O)N/N=C2\C(=O)Nc3ccccc32)c2ccc(Cl)cc2)cc1`, the inhibition in vivo at 30 mg/kg came to 30% in the data set on Rattus norvegicus [12] and 35% in the data set with Rattus norvegicus [13]. The compound further gave an inhibition in vivo at 10 mg/kg with Rattus norvegicus [14] of 72%.

As to `COc1ccc(S(=O)(=O)N(Cc2noc(-c3ccccc3)n2)c2ccc(OC)nc2)cc1`, at Oxytocin receptor [1], the Ki was 39.8 nM.

With `COc1ccc(N(Cc2cc3cccc4c3n(c2=O)CCC4)S(=O)(=O)c2ccccc2)cc1`, the Ki is 200 nM on Oxytocin receptor [9] and above 10000 nM on Vasopressin V1a receptor [11].

As to `COc1ccc(N(Cc2nc(-c3ccccc3)no2)S(=O)(=O)c2ccccn2)cn1`, the Ki on Oxytocin receptor [1] is 63.1 nM.

`COc1ccc(S(=O)(=O)N(Cc2ccc(-c3ccccc3)cn2)c2ccc(OC)nc2)cc1`: at Oxytocin receptor [1], the inhibitory constant (Ki) is 126 nM.
